Test results taken from DBAASP.
Converted amounts (≈) assume the structure as drawn. Values belong to the compound of their own block, whether it stands above or below them.

Columns and labels:
Assay in all cases: ≥ marks a high value that may be exact or a test limit, other limits are often not marked, values filed in µg/mL are converted to µM
Escherichia coli K-12 = test system: Escherichia coli K-12
Klebsiella pneumoniae = test system: Klebsiella pneumoniae
[1] = test system: Pseudomonas aeruginosa PAO1
[2] = test system: Staphylococcus aureus NCTC 8325-4
[3] = test system: Acinetobacter baumannii ATCC 19606
Acinetobacter baumannii = test system: Acinetobacter baumannii
[4] = test system: Bacillus subtilis ATCC 6051
[5] = test system: Candida albicans ATCC 90028
[6] = test system: Cryptococcus neoformans ATCC 208821
[7] = test system: Escherichia coli ATCC 25922
[8] = test system: Klebsiella pneumoniae ATCC 13883
[9] = test system: Klebsiella pneumoniae ATCC 700603
[10] = test system: Klebsiella pneumoniae ATCC BAA-2146
[11] = test system: Pseudomonas aeruginosa ATCC 27853
Pseudomonas aeruginosa = test system: Pseudomonas aeruginosa
[12] = test system: Staphylococcus aureus ATCC 43300
[13] = test system: Acinetobacter baumannii KCTC 2508
[14] = test system: Klebsiella pneumoniae KCTC 2208
Escherichia coli BL21 = test system: Escherichia coli BL21
Pseudomonas syringae = test system: Pseudomonas syringae
[15] = test system: Streptococcus pyogenes GAS M1T1
[16] = test system: Xanthomonas axonopodis pv. phaseoli ATCC 9563
[17] = test system: Candida albicans NCPF 1467
[18] = test system: Escherichia coli NCTC 10418
[19] = test system: Staphylococcus aureus ATCC 12493
[20] = test system: Staphylococcus aureus NCTC 10788

SMILES: CC[C@H](C)[C@H](N)C(=O)N[C@@H](C)C(=O)N[C@@H](CCCN=C(N)N)C(=O)N[C@@H](CCCN=C(N)N)C(=O)N[C@@H](C)C(=O)N[C@@H](CC(C)C)C(=O)N[C@@H](CCCCN)C(=O)N[C@@H](CCCCN)C(=O)N[C@@H](C)C(=O)N[C@@H](CCCCN)C(=O)N[C@@H](CCCN=C(N)N)C(=O)N[C@@H](C)C(=O)N[C@@H](C)C(=O)N[C@@H](Cc1cnc[nH]1)C(=O)N[C@@H](CCCCN)C(=O)N[C@H](C(=O)N1CCC[C@H]1C(=O)N[C@@H](C)C(=O)N[C@@H](C)C(=O)N[C@@H](CCCCN)C(=O)N[C@@H](CCCCN)C(=O)N[C@@H](Cc1ccccc1)C(=O)NCC(=O)N[C@@H](CCCN=C(N)N)C(=O)N[C@@H](CCCN=C(N)N)C(N)=O)[C@@H](C)CC [IARRALKKAKRAAHKIPAAKKFGRR]
MIC [13]: 8 µM (≈ 22.7 µg/mL)
MIC [14]: 2 µM (≈ 5.69 µg/mL)
MIC [11]: 16 µM (≈ 45.5 µg/mL)

SMILES: CC[C@H](C)[C@H](NC(=O)[C@H](CCCCN)NC(=O)[C@H](CC(N)=O)NC(=O)[C@H](CCCCN)NC(=O)[C@H](CC(C)C)NC(=O)[C@H](Cc1ccc(O)cc1)NC(=O)[C@H](CCC(N)=O)NC(=O)[C@H](CCCN=C(N)N)NC(=O)[C@@H](NC(=O)[C@@H](NC(=O)[C@H](CCC(=O)O)NC(=O)[C@H](CCCCN)NC(=O)[C@H](Cc1c[nH]c2ccccc12)NC(=O)[C@H](C)N)[C@@H](C)O)[C@@H](C)CC)C(=O)N[C@@H](CCCCN)C(=O)N[C@@H](CCCCN)C(=O)N[C@@H](CCCCN)C(=O)N[C@@H](Cc1c[nH]c2ccccc12)C(=O)N[C@@H](CCCN=C(N)N)C(=O)N[C@@H](CCCCN)C(=O)N[C@@H](C)C(=O)N[C@H](C(=O)N[C@H](C(=O)N[C@@H](C)C(=O)N[C@@H](Cc1c[nH]c2ccccc12)C(=O)O)[C@@H](C)CC)C(C)C [AWKETIRQYLKNKIKKKWRKAVIAW]
MIC (Escherichia coli BL21): 2 µM (≈ 6.37 µg/mL)
MIC (Pseudomonas syringae): 8 µM (≈ 25.5 µg/mL)
MIC [15]: 10 µM (≈ 31.9 µg/mL)
MIC [16]: 1 µM (≈ 3.19 µg/mL)

SMILES: CC[C@H](C)[C@H](NC(=O)[C@H](CCC(=O)O)NC(=O)[C@H](CC(N)=O)NC(=O)[C@H](CCCCN)NC(=O)[C@H](CC(C)C)NC(=O)[C@H](Cc1ccc(O)cc1)NC(=O)[C@H](CCCCN)NC(=O)[C@H](CCCN=C(N)N)NC(=O)[C@@H](NC(=O)[C@@H](NC(=O)[C@H](CCC(=O)O)NC(=O)[C@H](CCCCN)NC(=O)[C@H](Cc1c[nH]c2ccccc12)NC(=O)[C@H](C)N)[C@@H](C)O)[C@@H](C)CC)C(=O)N[C@@H](CCCCN)C(=O)N[C@@H](CCCCN)C(=O)N[C@@H](CCCCN)C(=O)N[C@@H](Cc1c[nH]c2ccccc12)C(=O)N[C@@H](CCCN=C(N)N)C(=O)N[C@@H](CCCCN)C(=O)N[C@@H](C)C(=O)N[C@H](C(=O)N[C@H](C(=O)N[C@@H](C)C(=O)N[C@@H](Cc1c[nH]c2ccccc12)C(=O)O)[C@@H](C)CC)C(C)C [AWKETIRKYLKNEIKKKWRKAVIAW]
MIC (Escherichia coli BL21): 2 µM (≈ 6.38 µg/mL)
MIC [1]: 8 µM (≈ 25.5 µg/mL)
MIC (Pseudomonas syringae): 8 µM (≈ 25.5 µg/mL)
MIC [15]: 10 µM (≈ 31.9 µg/mL)
MIC [16]: 2 µM (≈ 6.38 µg/mL)

SMILES: CC(C)C[C@H](NC(=O)[C@H](CC(C)C)NC(=O)[C@H](CCCCN)NC(=O)[C@@H]1CCCN1C(=O)[C@H](CC(C)C)NC(=O)[C@@H](N)Cc1ccccc1)C(=O)N[C@@H](C)C(=O)NCC(=O)N[C@@H](CC(C)C)C(=O)N1CCC[C@H]1C(=O)N[C@@H](CO)C(=O)N[C@@H](Cc1ccccc1)C(=O)N[C@@H](CC(C)C)C(=O)N[C@H]1CSSC[C@@H](C(=O)O)NC(=O)[C@H](CCCCN)NC(=O)[C@H](CCCCN)NC(=O)[C@H](Cc2ccccc2)NC(=O)[C@H](C(C)C)NC(=O)[C@H](CC(C)C)NC1=O [FLPKLLAGLPSFLCLVFKKC]
MIC [17]: 8 µM (≈ 17.9 µg/mL)
MIC [18]: 16 µM (≈ 35.8 µg/mL)
MIC [19]: 8 µM (≈ 17.9 µg/mL)
MIC [20]: 16 µM (≈ 35.8 µg/mL)

Next, values leading:

MIC (Escherichia coli K-12): 31.3 µM (≈ 39.9 µg/mL)
MIC (Klebsiella pneumoniae): 250 µM (≈ 319 µg/mL)
MIC [1]: > 250 µM
MIC [2]: ≥ 62.5 µM
SMILES: NCCCC[C@H](NC(=O)[C@H](CCCCN)NC(=O)[C@H](Cc1c[nH]c2ccccc12)NC(=O)[C@H](Cc1c[nH]c2ccccc12)NC(=O)[C@H](CCCCN)NC(=O)[C@H](CCCCN)NC(=O)[C@@H](N)Cc1c[nH]c2ccccc12)C(=O)N[C@@H](Cc1c[nH]c2ccccc12)C(N)=O [WKKWWKKW]

MIC [3]: 0.0574 µM (≈ 0.125 µg/mL)
MIC (Acinetobacter baumannii): 0.23 µM (≈ 0.499 µg/mL)
MIC [4]: 0.115 µM (≈ 0.25 µg/mL)
MIC [5]: 3.68 µM (≈ 7.99 µg/mL)
MIC [6]: 0.23 µM (≈ 0.499 µg/mL)
MIC [7]: 0.0276 µM (≈ 0.06 µg/mL)
MIC [8]: 0.0574 µM (≈ 0.125 µg/mL)
MIC [9]: 0.0574 µM (≈ 0.125 µg/mL)
MIC [10]: 0.23 µM (≈ 0.499 µg/mL)
MIC (Klebsiella pneumoniae): 3.68 µM (≈ 7.99 µg/mL)
MIC [11]: 0.459 µM (≈ 0.998 µg/mL)
MIC (Pseudomonas aeruginosa): 0.919 µM (≈ 2 µg/mL)
MIC [12]: 1.84 µM (≈ 3.99 µg/mL)
SMILES: CC[C@H](C)[C@@H]1NC(=O)CNC(=O)[C@H](CCCN=C(N)N)NC(=O)[C@H](C)NC(=O)[C@@H]2CSSC[C@H](NC1=O)C(=O)N[C@@H](Cc1ccc(O)cc1)C(=O)N[C@@H](CCCN=C(N)N)C(=O)N[C@@H](CCCN=C(N)N)C(=O)N[C@H](C(=O)N[C@@H](CCCN=C(N)N)C(=O)O)CSSC[C@H](NC(=O)[C@H](Cc1c[nH]c3ccccc13)NC(=O)[C@@H](N)CCCCN)C(=O)N[C@@H](Cc1ccccc1)C(=O)N[C@@H](CCCN=C(N)N)C(=O)N[C@@H](C(C)C)C(=O)N2 [KWCFRVCARGICYRRCR]

MIC [3]: 0.112 µM (≈ 0.25 µg/mL)
MIC (Acinetobacter baumannii): 0.112 µM (≈ 0.25 µg/mL)
MIC [4]: 0.0561 µM (≈ 0.125 µg/mL)
MIC [5]: 0.898 µM (≈ 2 µg/mL)
MIC [6]: 0.225 µM (≈ 0.499 µg/mL)
MIC [7]: 0.0561 µM (≈ 0.125 µg/mL)
MIC [8]: 0.112 µM (≈ 0.25 µg/mL)
MIC [9]: 0.225 µM (≈ 0.499 µg/mL)
MIC [10]: 0.112 µM (≈ 0.25 µg/mL)
MIC (Klebsiella pneumoniae): 3.59 µM (≈ 7.99 µg/mL)
MIC [11]: 0.112 µM (≈ 0.25 µg/mL)
MIC (Pseudomonas aeruginosa): 0.449 µM (≈ 0.998 µg/mL)
MIC [12]: 0.898 µM (≈ 2 µg/mL)
SMILES: CC(C)[C@@H]1NC(=O)[C@H](CCCN=C(N)N)NC(=O)[C@H](Cc2ccccc2)NC(=O)[C@@H](NC(=O)[C@H](Cc2c[nH]c3ccccc23)NC(=O)[C@@H](N)CCCCN)CSSC[C@@H](C(=O)N[C@@H](CCCN=C(N)N)C(=O)O)NC(=O)[C@H](CCCN=C(N)N)NC(=O)[C@H](CCCN=C(N)N)NC(=O)[C@H](Cc2ccc(O)cc2)NC(=O)[C@@H]2CSSC[C@H](NC1=O)C(=O)N[C@@H](Cc1ccc(O)cc1)C(=O)N[C@@H](CCCN=C(N)N)C(=O)NCC(=O)N[C@@H](C)C(=O)N2 [KWCFRVCYRGACYRRCR]

MIC [13]: 16 µM (≈ 46 µg/mL)
MIC [14]: 8 µM (≈ 23 µg/mL)
MIC [11]: 2 µM (≈ 5.75 µg/mL)
SMILES: CC[C@H](C)[C@H](N)C(=O)N[C@@H](C)C(=O)N[C@@H](CCCN=C(N)N)C(=O)N[C@@H](CCCN=C(N)N)C(=O)N[C@@H](C)C(=O)N[C@@H](CC(C)C)C(=O)N[C@@H](CCCCN)C(=O)N[C@@H](CCCCN)C(=O)N[C@@H](C)C(=O)N[C@@H](CCCCN)C(=O)N[C@@H](CCCN=C(N)N)C(=O)N[C@@H](C)C(=O)N[C@@H](C)C(=O)N[C@@H](Cc1cnc[nH]1)C(=O)N[C@@H](CCCCN)C(=O)N[C@H](C(=O)N1CCC[C@H]1C(=O)N[C@@H](C)C(=O)N[C@@H](CS)C(=O)N[C@@H](CCCCN)C(=O)N[C@@H](CCCCN)C(=O)N[C@@H](Cc1ccccc1)C(=O)NCC(=O)N[C@@H](CCCN=C(N)N)C(=O)N[C@@H](CCCN=C(N)N)C(N)=O)[C@@H](C)CC [IARRALKKAKRAAHKIPACKKFGRR]
